The term melting point denotes the temperature of the solid-liquid transition. Consider `O=C(O)c1ccccc1Nc1cccc(C(F)(F)F)c1` [flufenamic acid], for which the melting point was 125 °C. The figure for `CCN(CC)CCNC(=O)c1cc(Cl)c(N)cc1OC` [metoclopramide] is 147 °C; for `CCCCS(=O)CCCC` [di-n-butyl sulfoxide] it is 33 °C; for `C=CCc1ccccc1` [allylbenzene] it is -50 °C. The value for `COc1ccc2c(C)cc(=O)[nH]c2c1` [7-methoxy-4-methyl-2(1h)-quinolinone] was 206 °C; that for `O=C(O)c1cc(Br)ccc1Cl` [5-bromo-2-chlorobenzoic_acid] was 154 °C; that for `Cc1ccccc1/C=C(\C#N)c1nc2ccccc2s1` [(E)-2-Benzothiazol-2-yl-3-o-tolyl-acrylonitrile] was 149 °C. The value for `CCS(=O)(=O)CCO` [2-(ethylsulfonyl)ethanol] was 38 °C; that for `CCCC=CB(O)O` [1-pentenylboronic acid] was 80 °C. `Cc1ccc(C(=O)O)cc1` [4-Methylbenzoic acid]: the melting point is 181 °C.

`COC(=O)c1[nH]c(C(=O)OC)c(O)c1O` [dimethyl 3,4-dihydroxypyrrole-2,5-dicarboxylate] displayed a melting point of 211 °C. The figure for `Clc1cccc2cc3ccccc3cc12` [1-chloroanthracene] is 77 °C; for `C1COCO1` [1,3-dioxolane] it is -95 °C; for `O=C(/C=C/c1ccc(-c2cccc([N+](=O)[O-])c2)o1)c1ccccc1` [(2E)-3-[5-(3-Nitrophenyl)-2-furyl]-1-phenylprop-2-en-1-one] it is 147 °C. For the compound `Cc1ccc(S(N)(=O)=O)cc1` [p-toluenesulfonamide], the melting point was 139 °C. Compound `O=C(O)c1cc(Cl)cc(Cl)c1O` [3,5-dichlorosalicylic acid] came in with a melting point of 224 °C. The figure for `CC(=O)[C@H]1C[C@@H](CC(=O)O)C1(C)C` [[(1S,3S)-3-Acetyl-2,2-dimethylcyclobutyl]acetic acid] is 67.8 °C. The figure for `NCCC(=O)O` [beta-alanine] is 200 °C; for `O=c1c(-c2ccccc2)c1-c1ccccc1` [2,3-diphenyl-2-cyclopropen-1-one] it is 120 °C; for `O=Cc1ccccc1O` [Salicylaldehyde] it is 1.5 °C. For the compound `Nc1ccc(O)c([N+](=O)[O-])c1` [4-amino-2-nitrophenol], the melting point worked out at 129 °C. The compound `N#CCc1ccccc1C(=O)O` [o-cyanomethyl_benzoic_acid] returned a melting point of 115 °C.

The values above are taken from the Bradley open melting point set (2014).
